According to EP3789378A1, “PIPERIDINES OR PIPERIDONES SUBSTITUTED WITH UREA AND HETEROARYL” (Grünenthal GmbH, priority 2019, dated 2021):

Biological target: T1, h FPR2 (Homo sapiens, UniProt P25090)
T1 construct: expressed in transfected cells
T1 sequence (P25090 1-351): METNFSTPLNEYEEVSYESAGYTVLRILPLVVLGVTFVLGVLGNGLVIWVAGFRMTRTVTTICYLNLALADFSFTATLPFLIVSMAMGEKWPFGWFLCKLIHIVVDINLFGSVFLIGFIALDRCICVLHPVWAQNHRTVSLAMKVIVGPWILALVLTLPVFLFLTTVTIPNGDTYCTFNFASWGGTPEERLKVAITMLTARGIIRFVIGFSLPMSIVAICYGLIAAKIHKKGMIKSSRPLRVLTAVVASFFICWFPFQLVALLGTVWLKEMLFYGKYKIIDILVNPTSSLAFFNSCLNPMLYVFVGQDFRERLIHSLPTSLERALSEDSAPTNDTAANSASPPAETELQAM
Test: Agonistic activity in hFPR2-Aq-CHO cells (FLIPR Calcium 5 fluorescence assay)
Type: cell-based
Conditions: for EC50: 11 point half log dilution, final assay concentration from 10µM; for activation at 0.1 µM: agonistic response at 0.1µM
Method in brief: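 EC50 reflects the compound-evoked rise in Calcium 5 fluorescence over basal, recorded for 5 min on FLIPR and compared with no-compound wells. Dye-loaded hFPR2-Aq-CHO cells received half-log dilutions from 10 µM to 100 pM final in pH 7.4 HBSS buffer.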

SMILES | EC50 [nM] | activation at 0.1 µM [%]
O=C(Nc1ccccc1)N[C@@H]1CCN(CC(F)F)C[C@H]1c1ccc(Cl)cn1 (relative stereo) [Ex-153, trans-1-[3-(5-Chloro-pyridin-2-yl)-1-(2,2-difluoro-ethyl)-piperidin-4-yl]-3-phenyl-urea] | 12 | 
COCCN1CC[C@@H](NC(=O)Nc2ccc(C#N)cc2)[C@H](c2ccc(OC)cn2)C1 (relative stereo) [Ex-154, trans-1-(4-Cyano-phenyl)-3-[1-(2-methoxy-ethyl)-3-(5-methoxy-pyridin-2-yl)-piperidin-4-yl]-urea] | 10 | 
COc1ccc([C@@H]2CN(CC3(C#N)CC3)CC[C@H]2NC(=O)Nc2ccc(Cl)cc2)nc1 (relative stereo) [Ex-155, trans-1-(4-Chlorophenyl)-3-[1-[(1-cyano-cyclopropyl)-methyl]-3-(5-methoxy-pyridin-2-yl)-piperidin-4-yl]-urea] | 0.09 | 
COc1ccc([C@@H]2CN(C(=O)C3CCN(C)CC3)CC[C@H]2NC(=O)Nc2ccccc2)nc1 (relative stereo) [Ex-156, trans-1-[3-(5-Methoxy-pyridin-2-yl)-1-(1-methyl-piperidine-4-carbonyl)-piperidin-4-yl]-3-phenyl-urea] | 58 | 
COc1ccc([C@@H]2CN(C(=O)CN(C)C)CC[C@H]2NC(=O)Nc2ccccc2)nc1 (relative stereo) [Ex-157, trans-1-[1-(2-Dimethylamino-acetyl)-3-(5-methoxy-pyridin-2-yl)-piperidin-4-yl]-3-phenyl-urea] | 81 | 
COCCCN1CC[C@@H](NC(=O)Nc2ccccc2)[C@H](c2ccc(OC)cn2)C1 (relative stereo) [Ex-158, trans-1-[1-(3-Methoxy-propyl)-3-(5-methoxy-pyridin-2-yl)-piperidin-4-yl]-3-phenyl-urea] | 31 | 
COc1ccc([C@@H]2CN(CCCO)CC[C@H]2NC(=O)Nc2ccccc2)nc1 (relative stereo) [Ex-159, trans-1-[1-(3-Hydroxy-propyl)-3-(5-methoxy-pyridin-2-yl)-piperidin-4-yl]-3-phenyl-urea] | 57 | 
COc1ccc([C@@H]2CN(CCS(C)(=O)=O)CC[C@H]2NC(=O)Nc2ccccc2)nc1 (relative stereo) [Ex-160, trans-1-[3-(5-Methoxy-pyridin-2-yl)-1-(2-methylsulfonyl-ethyl)-piperidin-4-yl]-3-phenyl-urea] | 88 | 
COc1ccc([C@@H]2CN(CC3COC3)CC[C@H]2NC(=O)Nc2ccccc2)nc1 (relative stereo) [Ex-161, trans-1-[3-(5-Methoxy-pyridin-2-yl)-1-(oxetan-3-yl-methyl)-piperidin-4-yl]-3-phenyl-urea] | 28 | 
COc1ccc([C@@H]2CN(C3COC3)CC[C@H]2NC(=O)Nc2ccccc2)nc1 (relative stereo) [Ex-162, trans-1-[3-(5-Methoxy-pyridin-2-yl)-1-(oxetan-3-yl)-piperidin-4-yl]-3-phenyl-urea] |  | 34
COc1ccc([C@@H]2CN(CC3(O)CC3)CC[C@H]2NC(=O)Nc2ccc(Cl)cc2)nc1 (relative stereo) [Ex-163, trans-1-(4-Chlorophenyl)-3-[1-[(1-hydroxy-cyclopropyl)-methyl]-3-(5-methoxy-pyridin-2-yl)-piperidin-4-yl]-urea] | 0.8 | 
COc1ccc([C@@H]2CN(CCO)CC[C@H]2NC(=O)Nc2ccccc2)nc1 (relative stereo) [Ex-164, trans-1-[1-(2-Hydroxy-ethyl)-3-(5-methoxy-pyridin-2-yl)-piperidin-4-yl]-3-phenyl-urea] | 56 | 
O=C(Nc1ccccc1)N[C@@H]1CCN(C(=O)C2CCNCC2)C[C@H]1c1ccc(Cl)cn1 (relative stereo) [Ex-167, trans-1-[3-(5-Chloro-pyridin-2-yl)-1-(piperidine-4-carbonyl)-piperidin-4-yl]-3-phenyl-urea] | 85 | 
COc1ccc([C@@H]2CNCC[C@H]2NC(=O)Nc2ccc(Cl)cc2)nc1 (relative stereo) [Ex-169, trans-1-(4-Chlorophenyl)-3-[3-(5-methoxy-pyridin-2-yl)-piperidin-4-yl]-urea] |  | 23
COc1ccc([C@@H]2CN(CC(N)=O)CC[C@H]2NC(=O)Nc2ccc(Cl)cc2)nc1 (relative stereo) [Ex-171, trans-2-[4-[[(4-Chlorophenyl)-carbamoyl]amino]-3-(5-methoxy-pyridin-2-yl)-piperidin-1-yl]-acetamide] |  | 3
COc1ccc([C@@H]2CN(CC3CC3)CC[C@H]2NC(=O)Nc2ccc(Cl)cc2)nc1 (relative stereo) [Ex-173, trans-1-(4-Chlorophenyl)-3-[1-(cyclopropyl-methyl)-3-(5-methoxy-pyridin-2-yl)-piperidin-4-yl]-urea] |  | 44
COc1ccc([C@@H]2CN(CC(F)F)CC[C@H]2NC(=O)Nc2ccc(C#N)cc2)nc1 (relative stereo) [Ex-175, trans-1-(4-Cyano-phenyl)-3-[1-(2,2-difluoro-ethyl)-3-(5-methoxy-pyridin-2-yl)-piperidin-4-yl]-urea] |  | 17
COc1ccc([C@@H]2CN(CC(C)(C)O)CC[C@H]2NC(=O)Nc2cc(C)ns2)nc1 (relative stereo) [Ex-176, trans-1-[1-(2-Hydroxy-2-methyl-propyl)-3-(5-methoxy-pyridin-2-yl)-piperidin-4-yl]-3-(3-methyl-isothiazol-5-yl)-urea] |  | 5
COc1ccc([C@@H]2CN(CC(C)(C)O)CC[C@H]2NC(=O)Nc2ccc(Cl)cc2)nc1 (relative stereo) [Ex-178, trans-1-(4-Chlorophenyl)-3-[1-(2-hydroxy-2-methyl-propyl)-3-(5-methoxy-pyridin-2-yl)-piperidin-4-yl]-urea] |  | 0.2
COc1ccc([C@@H]2CN(C3(C#N)CC3)CC[C@H]2NC(=O)Nc2ccc(Cl)cc2)nc1 (relative stereo) [Ex-180, trans-1-(4-Chlorophenyl)-3-[1-(1-cyano-cyclopropyl)-3-(5-methoxy-pyridin-2-yl)-piperidin-4-yl]-urea] | 0.5 | 
COc1ccc([C@@H]2CN(C3(C(N)=O)CC3)CC[C@H]2NC(=O)Nc2ccc(Cl)cc2)nc1 (relative stereo) [Ex-181, trans-1-[4-[[(4-Chlorophenyl)-carbamoyl]amino]-3-(5-methoxy-pyridin-2-yl)-piperidin-1-yl]-cyclopropane-1-carboxylic acid amide] | 0.9 | 
COc1ccc([C@@H]2CN(CC3(O)CC3)CC[C@H]2NC(=O)Nc2cc(C)ns2)nc1 (relative stereo) [Ex-182, trans-1-[1'-(1-hydroxy-cyclopropylmethyl)-5-methoxy-1',2',3',4',5',6'-hexahydro-[2,3']bipyridinyl-4'-yl]-3-(3-methyl-isothiazol-5-yl)-urea] | 2 | 
CS(=O)(=O)n1ccc(CN2CC[C@@H](NC(=O)Nc3ccccc3)[C@H](c3ccc(Cl)cn3)C2)n1 (relative stereo) [Ex-184, trans-1-[5-chloro-1'-(1-methanesulfonyl-1H-pyrazol-3-ylmethyl)-1',2',3',4',5',6'-hexahydro-[2,3']bipyridinyl-4'-yl]-3-phenyl-urea] | 1.4 | 
O=C(Nc1ccccc1)N[C@@H]1CCN(C2CNC2)C[C@H]1c1ccc(Cl)cn1 (relative stereo) [Ex-185, trans-1-(1'-azetidin-3-yl-5-chloro-1',2',3',4',5',6'-hexahydro-[2,3']bipyridinyl-4'-yl)-3-phenyl-urea] |  | 19
